Source: patent US20240115589A1, “PHARMACEUTICAL COMPOSITION FOR PREVENTING CYTOKINE STORM” (KINKI UNIVERSITY, priority 2021, published 2024)

Tests used:
male C57BL/6J = experiment: Survival rate of mice treated with compound and LPS (lethality in cytokine storm); assay type: in vivo; conditions: C57BL/6J mice, 25 mg/kg LPS i.p. 5 min later, day 2, compared to LPS group
Procedure: Six-week-old male C57BL/6J (SHIMIZU Laboratory Supplies Co., Ltd.) were orally administered 50 mg/kg mangiferin 8a, 100 mg/kg norathyriol, 50 mg/kg M9, and 50 mg/kg M14. Five minutes later, 25 mg/kg LPS was administered intraperitoneally. The day of administration was set as day 0, and the survival rate was measured on day 2.
(§1) Those not receiving the compound and LPS are referred to as the control group, those receiving 25 mg/kg LPS are referred to as the LPS group, those receiving 50 mg/kg mangiferin 8a and 25 mg/kg LPS are referred to as the mangiferin 8a-treated group, those receiving 100 mg/kg norathyriol and 25 mg/kg LPS are referred to as the norathyriol-treated group, those receiving 50 mg/kg M9 and 25 mg/kg LPS are referred to as the M9-treated group, and those receiving 50 mg/kg M14 and 25 mg/kg LPS are referred to as the M14-treated group.
Referring to FIG. 9, the horizontal axis indicates compound treatment, and the vertical axis indicates survival rate (%).

IL-6 [1] = experiment: LPS-stimulated IL-6 production in mouse B cells (ELISA); assay type: cell-based; conditions: culture supernatant, then 10 μg/mL LPS 2 days, control 9.46, LPS alone 246.13 pg/mL
Procedure: The inhibitory effect of compounds on IL-6 production involved in cytokine storm was examined using mouse B cells.
(§2) Mouse B cells were pre-cultured with RPMI1640 medium for 1 day. After incubation, mouse B cells were treated with 10 μM mangiferin 8a, 10 μM norathyriol, 1 μM M9, and 1 μM M14 for 1 day. Then, 10 μg/mL LPS was added to mouse B cells and cultured for 2 days. After incubation, the culture supernatant was collected and IL-6 production was determined by enzyme-linked immunosorbent assay (ELISA). This measurement was performed using a mouse IL-6 ELISAkit (R&D).

IL-6 mRNA [2] = experiment: LPS-stimulated IL-6 mRNA expression in mouse B cells (real time PCR); assay type: cell-based; conditions: then 10 μg/mL LPS 4 h, vs LPS-treated group
Procedure: (§3) Mouse B cells were pre-cultured with RPMI1640 medium for 1 day. After incubation, mouse B cells were treated with 10 μM mangiferin 8a, 10 μM norathyriol, 1 μM M9, and 1 μM M14 for 1 day. Then, 10 μg/mL LPS was added to mouse B cells and cultured for 4 h. After incubation, cells were collected, RNA was extracted, and TNFα mRNA expression was measured by real time PCR.
The inhibitory effect of compounds on IL-6 mRNA expression involved in cytokine storm was examined using mouse B cells. The experimental procedure is the same as in Example 1.
(§4) For controls, only 0.5% DMSO (diluted in PBS) used to dissolve the compounds was added. 10 μg/mL LPS administered is called the LPS-treated group, LPS and mangiferin 8a administered in combination is called the mangiferin 8a-treated group, LPS and norathyriol administered in combination is called the norathyriol group, LPS and M9 administered in combination is called the M9-treated group, LPS and M14 administered in combination is called the M14-treated group, respectively.

TNFα mRNA [3] = experiment: LPS-stimulated TNFα mRNA expression in mouse B cells (real time PCR); assay type: cell-based; conditions: then 10 μg/mL LPS 4 h, vs LPS-treated group
Procedure: The inhibitory effect of compounds on TNFα mRNA expression involved in cytokine storm was examined using mouse B cells.
as §3, §4

TNFα [4] = experiment: LPS-stimulated TNFα production in mouse macrophages (ELISA); assay type: cell-based; conditions: culture supernatant, then 10 μg/mL LPS 2 days, control 24.11, LPS alone 421.13 pg/mL
Procedure: The inhibitory effect of compounds on TNFα production involved in cytokine storm was examined using mouse macrophages.
as §2, with “macrophages” for “B cells”, “TNFα” for “IL-6”, “TNFα ELISA kit” for “IL-6 ELISAkit”

IL-6 [5] = experiment: LPS-stimulated IL-6 production in mouse macrophages (ELISA); assay type: cell-based; conditions: culture supernatant, then 10 μg/mL LPS 2 days, control 13.13, LPS alone 321.13 pg/mL
Procedure: The inhibitory effect of compounds on IL-6 production involved in cytokine storm was examined using mouse macrophages.
as §2, with “macrophages” for “B cells”, “ELISA kit” for “ELISAkit”

TNFα [6] = experiment: LPS-stimulated TNFα production in mouse B cells (ELISA); assay type: cell-based; conditions: culture supernatant, then 10 μg/mL LPS 2 days, control 15.13, LPS alone 296.31 pg/mL
Procedure: The inhibitory effect of compounds on TNFα production involved in cytokine storm was examined using mouse B cells.
as §2, with “TNFα” for “IL-6”, “TNFα ELISA kit” for “IL-6 ELISAkit”

IL-6 mRNA [7] = experiment: LPS-stimulated IL-6 mRNA expression in mouse macrophages (real time PCR); assay type: cell-based; conditions: then 10 μg/mL LPS 4 h, vs LPS-treated group
Procedure: as §3, with “macrophages” for “B cells”
The inhibitory effect of compounds on IL-6 mRNA expression involved in cytokine storm was examined using mouse macrophages.
as §4, with “The experimental procedure is the same as in Example 3. […] For” for “For”

TNFα mRNA [8] = experiment: LPS-stimulated TNFα mRNA expression in mouse macrophages (real time PCR); assay type: cell-based; conditions: then 10 μg/mL LPS 4 h, vs LPS-treated group
Procedure: The inhibitory effect of compounds on TNFα mRNA expression involved in cytokine storm was examined using mouse macrophages.
as §3, with “macrophages” for “B cells”
as §4

IL-6 [9] = experiment: Serum IL-6 production in mice treated with compound and LPS (ELISA); assay type: in vivo; conditions: C57BL/6J mice, 25 mg/kg LPS i.p., serum 2 hours after LPS, control 2.75, LPS alone 20.1 ng/mL
Procedure: (§5) Six-week-old male C57BL/6J (Shimizu experimental material) was orally administered 100 mg/kg norathyriol, 50 mg/kg M9, and 50 mg/kg M14. Five minutes later, 25 mg/kg LPS was administered intraperitoneally. Serum was collected from mice 2 hours after LPS administration, and the amount of IL-6 production involved in the cytokine storm was measured by enzyme-linked immunosorbent assay (ELISA). This measurement was performed using a mouse IL-6 ELISA kit (R&D).
as §1, with “LPS” for “LPS group, those receiving 50 mg/kg mangiferin 8a and 25 mg/kg LPS are referred to as the mangiferin 8a-treated”

TNFα [10] = experiment: Serum TNFα production in mice treated with compound and LPS (ELISA); assay type: in vivo; conditions: C57BL/6J mice, 25 mg/kg LPS i.p., serum 2 hours after LPS, control 1.55, LPS alone 10.28 ng/mL
Procedure: as §5, with “TNFα” for “IL-6”
as §1, with “LPS” for “LPS group, those receiving 50 mg/kg mangiferin 8a and 25 mg/kg LPS are referred to as the mangiferin 8a-treated”

In the case of CCC(=O)OC[C@H]1O[C@@H](c2c(O)cc3oc4cc(O)c(O)cc4c(=O)c3c2OC(=O)CC)[C@H](OC(=O)CC)[C@@H](OC(=O)CC)[C@@H]1OC(=O)CC [mangiferin 8a, 1,2′,3′,4′,6′-penta-O-propionylmangiferin], the survival rate (male C57BL/6J; 50 mg/kg oral) is reported as “significantly reduced the decrease in survival”, the IL-6 production (IL-6 [1]; 10 μM compound 1 day) is reported as 54.13 pg/mL and the “LPS-induced IL-6 mRNA expression (ratio to GAPDH mRNA)” value (IL-6 mRNA [2]; 10 μM compound 1 day) is reported as “decrease in LPS-induced IL-6 mRNA expression”. The “LPS-induced TNFα mRNA expression (ratio to GAPDH mRNA)” value (TNFα mRNA [3]; 10 μM compound 1 day) was “decrease in LPS-induced TNFα mRNA expression”, the TNFα production (TNFα [4]; 10 μM compound 1 day) was 65.13 pg/mL and the IL-6 production (IL-6 [5]; 10 μM compound 1 day) was 69.16 pg/mL. For the same compound, the TNFα production (TNFα [6]; 10 μM compound 1 day) was 59.31 pg/mL, the “LPS-induced IL-6 mRNA expression (ratio to GAPDH mRNA)” value (IL-6 mRNA [7]; 10 μM compound 1 day) was “decrease in LPS-induced IL-6 mRNA expression” and the “LPS-induced TNFα mRNA expression (ratio to GAPDH mRNA)” value (TNFα mRNA [8]; 10 μM compound 1 day) was “decrease in LPS-induced TNFα mRNA expression”.

For CCCC(=O)OC[C@H]1O[C@@H](c2c(O)cc3oc4cc(O)c(O)cc4c(=O)c3c2O)[C@H](OC(=O)CCC)[C@@H](OC(=O)CCC)[C@@H]1OC(=O)CCC [M14, 2′,3′,4′,6′-tetra-O-butyrylmangiferin], the survival rate (male C57BL/6J; 50 mg/kg oral) was “significantly reduced the decrease in survival”, the IL-6 production (IL-6 [1]; 1 μM compound 1 day) was 45.13 pg/mL and the “LPS-induced IL-6 mRNA expression (ratio to GAPDH mRNA)” value (IL-6 mRNA [2]; 1 μM compound 1 day) was “decrease in LPS-induced IL-6 mRNA expression”. The “IL-6 production in serum” value (IL-6 [9]; 50 mg/kg oral) was 14.26 ng/mL, the “TNFα production in serum” value (TNFα [10]; 50 mg/kg oral) was 5.2 ng/mL and the “LPS-induced TNFα mRNA expression (ratio to GAPDH mRNA)” value (TNFα mRNA [3]; 1 μM compound 1 day) was “decrease in LPS-induced TNFα mRNA expression”. For the same compound, the TNFα production (TNFα [4]; 1 μM compound 1 day) was 54.13 pg/mL, the IL-6 production (IL-6 [5]; 1 μM compound 1 day) was 45.13 pg/mL and the TNFα production (TNFα [6]; 1 μM compound 1 day) was 46.13 pg/mL. For the same compound, the “LPS-induced IL-6 mRNA expression (ratio to GAPDH mRNA)” value (IL-6 mRNA [7]; 1 μM compound 1 day) was “decrease in LPS-induced IL-6 mRNA expression” and the “LPS-induced TNFα mRNA expression (ratio to GAPDH mRNA)” value (TNFα mRNA [8]; 1 μM compound 1 day) was “decrease in LPS-induced TNFα mRNA expression”.

With CCC(=O)OC[C@H]1O[C@@H](c2c(O)cc3oc4cc(O)c(O)cc4c(=O)c3c2O)[C@H](OC(=O)CC)[C@@H](OC(=O)CC)[C@@H]1OC(=O)CC [M9, 2′,3′,4′,6′-tetra-O-propionylmangiferin] the survival rate (male C57BL/6J; 50 mg/kg oral) was “significantly reduced the decrease in survival”, the IL-6 production (IL-6 [1]; 1 μM compound 1 day) was 45.12 pg/mL and the “LPS-induced IL-6 mRNA expression (ratio to GAPDH mRNA)” value (IL-6 mRNA [2]; 1 μM compound 1 day) was “decrease in LPS-induced IL-6 mRNA expression”. For the same compound, the “IL-6 production in serum” value (IL-6 [9]; 50 mg/kg oral) was 15.15 ng/mL, the “TNFα production in serum” value (TNFα [10]; 50 mg/kg oral) was 5.68 ng/mL and the “LPS-induced TNFα mRNA expression (ratio to GAPDH mRNA)” value (TNFα mRNA [3]; 1 μM compound 1 day) was “decrease in LPS-induced TNFα mRNA expression”. It also gave a TNFα production (TNFα [4]; 1 μM compound 1 day) of 58.13 pg/mL, an IL-6 production (IL-6 [5]; 1 μM compound 1 day) of 49.46 pg/mL and a TNFα production (TNFα [6]; 1 μM compound 1 day) of 55.13 pg/mL. For the same compound, the “LPS-induced IL-6 mRNA expression (ratio to GAPDH mRNA)” value (IL-6 mRNA [7]; 1 μM compound 1 day) was “decrease in LPS-induced IL-6 mRNA expression” and the “LPS-induced TNFα mRNA expression (ratio to GAPDH mRNA)” value (TNFα mRNA [8]; 1 μM compound 1 day) was “decrease in LPS-induced TNFα mRNA expression”.

In the case of O=c1c2cc(O)c(O)cc2oc2cc(O)cc(O)c12 [norathyriol, 1,3,6,7-tetrahydroxyxanthone], the survival rate (male C57BL/6J; 100 mg/kg oral) is reported as “significantly reduced the decrease in survival”, the IL-6 production (IL-6 [1]; 10 μM compound 1 day) is reported as 56.13 pg/mL and the “LPS-induced IL-6 mRNA expression (ratio to GAPDH mRNA)” value (IL-6 mRNA [2]; 10 μM compound 1 day) is reported as “decrease in LPS-induced IL-6 mRNA expression”. The “IL-6 production in serum” value (IL-6 [9]; 100 mg/kg oral) was 11.37 ng/mL, the “TNFα production in serum” value (TNFα [10]; 100 mg/kg oral) was 2.71 ng/mL and the “LPS-induced TNFα mRNA expression (ratio to GAPDH mRNA)” value (TNFα mRNA [3]; 10 μM compound 1 day) was “decrease in LPS-induced TNFα mRNA expression”. For the same compound, the TNFα production (TNFα [4]; 10 μM compound 1 day) was 68.13 pg/mL, the IL-6 production (IL-6 [5]; 10 μM compound 1 day) was 64.13 pg/mL and the TNFα production (TNFα [6]; 10 μM compound 1 day) was 64.13 pg/mL. For the same compound, the “LPS-induced IL-6 mRNA expression (ratio to GAPDH mRNA)” value (IL-6 mRNA [7]; 10 μM compound 1 day) was “decrease in LPS-induced IL-6 mRNA expression” and the “LPS-induced TNFα mRNA expression (ratio to GAPDH mRNA)” value (TNFα mRNA [8]; 10 μM compound 1 day) was “decrease in LPS-induced TNFα mRNA expression”.
